Structures can show the parent of a compound that is named as a salt.
Molecular target: T1, hS1P1 receptor (Homo sapiens, UniProt P21453)
T1 construct: host or cells: U2OS
Test: hS1P1 receptor internalization assay (cell imaging-based, hS1P1-eGFP U2OS cells)
Conditions: U2OS cell line expressing hS1P1-eGFP, compounds incubated at 37° C. for one hour; for Emax: 1 h, efficacy (Max), read-out: hS1P1 Receptor Internalization (biolimaging) Max (%); for EC50: GFP-containing endosomes per cell (ArrayScan), read-out: hS1P1 Receptor Internalization (bioimaging) EC50 IP
Procedure: The activity of compounds of the invention was determined by a cell imaging-based assay measuring the degree of hS1P1 receptor internalization and a Ca^2+ mobilization assay measuring the level of S1P receptor activation. The receptor internalization assay was employed to determine the potency and efficacy of compounds on hS1P1 receptor, while Ca^2+ mobilization assay was used to determine selectivity among different S1P receptors and activity on S1P receptors from species such as rat, dog, and cyno. The hS1P1 receptor internalization assay was performed using a U2OS cell line expressing hS1P1-eGFP chimeric protein (Thermo Scientific, Soeborg, Denmark). Upon compound treatment, the hS1P1 receptor was internalized in cytoplasma and formed GFP-containing-endosomes. This event was detected by an automated microscope, ArrayScan (Thermo Scientific Cellomics, Pittsburg), and the degree of receptor internalization is quantitated by counting green fluorescent GFP-containing endosomes per cell. In this assay, hS1P1-eGFP expressing U2OS cells were starved in serum free media for two hours prior to compound treatment. Then compounds were incubated with the starved cells at 37° C. for one hour. Subsequently, compound-treated cells were fixed using 4% formaldehyde, and the nuclei were stained using Hoechst. Then the cells were imaged in ArrayScan. The potency and efficacy of the compounds were determined by plotting the number of green fluorescent GFP-containing endosomes per cell against corresponding compound concentration.

T1 sequence (P21453 whole entry): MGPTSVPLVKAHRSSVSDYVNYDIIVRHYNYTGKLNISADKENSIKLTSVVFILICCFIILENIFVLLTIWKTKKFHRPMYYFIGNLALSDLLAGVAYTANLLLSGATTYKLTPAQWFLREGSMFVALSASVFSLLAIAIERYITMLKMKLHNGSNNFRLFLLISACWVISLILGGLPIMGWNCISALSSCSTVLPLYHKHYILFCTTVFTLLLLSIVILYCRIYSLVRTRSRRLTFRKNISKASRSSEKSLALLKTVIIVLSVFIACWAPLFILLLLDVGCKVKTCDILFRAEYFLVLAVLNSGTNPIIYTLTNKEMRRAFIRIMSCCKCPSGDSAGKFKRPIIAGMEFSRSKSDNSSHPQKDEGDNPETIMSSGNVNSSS

| Structure (SMILES) | Emax | EC50 |
| --- | --- | --- |
| O=C(O)C1CN(Cc2ccc(-c3nc4nc(C5(c6ccccc6)CC5)ccc4s3)c(F)c2)C1 [Example 44, 1-(3-fluoro-4-(5-(1-phenylcyclopropyl)thiazolo[4,5-b]pyridin-2-yl)-benzyl)azetidine-3-carboxylic acid trifluoroacetic acid salt] | 113% | 59.7 nM |
| O=C(O)C1CN(Cc2ccc(-c3nc4cnc(C5(c6ccccc6)CC5)cc4s3)c(F)c2)C1 [Example 45, 1-(3-fluoro-4-(6-(1-phenylcyclopropyl)thiazolo[4,5-c]pyridine-2-yl)benzyl)azetidine-3-carboxylic acid trifluoroacetic acid salt] | 103% | 99.7 nM |
| O=C(O)CN1CCc2cc(-c3nc4ccc(C5(c6ccccc6)CC5)nc4s3)ccc2C1 [Example 82, 2-(6-(5-(1-phenylcyclopropyl)thiazolo[5,4-b]pyridin-2-yl)-3,4-dihydroisoquinolin-2(1H)-yl)acetic acid] | 106% | 46.1 nM |
| O=C(O)CCNC(=O)c1ccc(-c2nc3ccc(C4(c5ccccc5)CC4)nc3s2)c(F)c1 [Example 14, 3-(3-fluoro-4-(5-(1-phenylcyclopropyl)thiazolo[5,4-b]pyridine-2-yl)-benzamido)propanoic acid] | 66% | 20.6 nM |
| OCC(CO)Cc1ccc(-c2nc3ccc(C4(c5ccccc5)CC4)nc3s2)c(F)c1 [Example 29, 2-(3-fluoro-4-(5-(1-phenylcyclopropyl)thiazolo[5,4-b]pyridine-2-yl)benzyl)propane-1,3-diol] | 91% | 334 nM |
| O=C(O)C1CN(Cc2ccc(-c3nc4ccc(C5(c6ccccn6)CC5)cc4s3)c(F)c2)C1 [Example 62, 1-((3-fluoro-4-(6-(1-(pyridine-2-yl)cyclopropyl)benzo[d]thiazol-2-yl)-phenyl)methyl)azetidine-3-carboxylic acid] | 98% | 3710 nM |
| OC1CN(Cc2ccc(-c3nc4ccc(C5(c6ccccc6)CC5)nc4s3)c(F)c2)C1 [Example 35, 1-(3-fluoro-4-(5-(1-phenylcyclopropyl)thiazolo[5,4-b]pyridin-2-yl)benzyl)-azetidin-3-ol] | 90% | 18.7 nM |
| O=C(O)[C@@H]1C[C@@H](Oc2ccc(-c3nc4ccc(C5(c6ccccc6)CC5)nc4s3)cc2)CN1 [Example 72, (2S,4R)-4-(4-(5-(1-phenylcyclopropyl)thiazolo[5,4-b]pyridin-2-yl)phenoxy)pyrrolidine-2-carboxylic acid] | 133% | 45.1 nM |
| NC(CO)(CO)CCc1ccc(-c2nc3ccc(C4(c5ccccc5)CC4)nc3s2)c(F)c1 [Example 42, 2-amino-2-(3-fluoro-4-(5-(1-phenylcyclopropyl)thiazolo[5,4-b]pyridin-2-yl)phenethyl)propane-1,3-diol hydrochloride] | 119% | 10.2 nM |
| O=C(O)C[C@H](O)C(=O)Nc1ccc(-c2nc3ccc(C4(c5ccccc5)CC4)nc3s2)c(F)c1 [Example 133, (3S)-4-(3-fluoro-4-(5-(1-phenylcyclopropyl)thiazolo[5,4-b]pyridin-2-yl)phenylamino)-3-hydroxy-4-oxobutanoic acid] | 133% | 2.2 nM |
| C[C@H](CC(=O)O)NCc1ccc(-c2nc3ccc(C4(c5ccccc5)CC4)nc3s2)c(F)c1 [Example 91, (R)-3-(3-fluoro-4-(5-(1-phenylcyclopropyl)thiazolo[5,4-b]pyridin-2-yl)benzylamino)butanoic acid hydrochloride] | 131% | 32.7 nM |
| O=C(O)C1CN(Cc2ccc(-c3nc4ccc(C5(c6ccc(O)cc6)CC5)nc4s3)c(F)c2)C1 [Example 39, 1-(3-fluoro-4-(5-(1-(4-hydroxyphenyl)cyclopropyl)thiazolo[5,4-b]pyridine-2-yl)benzyl)azetidine-3-carboxylic acid] | 83% | 21.2 nM |
| Cc1cc(-c2nc3ccc(C4(c5ccccc5)CC4)nc3s2)cc(C)c1CN1CC(C(=O)O)C1 [Example 17, 1-((2,6-dimethyl-4-(5-(1-phenylcyclopropyl)thiazolo[5,4-b]-pyridin-2-yl)phenyl)methyl)azetidine-3-carboxylic acid] | 148% | 21 nM |
| O=C(O)CC1CN(Cc2ccc(-c3nc4ccc(C5(c6ccccc6)CC5)nc4s3)c(F)c2)C1 [Example 79, 2-(1-(3-fluoro-4-(5-(1-phenylcyclopropyl)thiazolo[5,4-b]pyridin-2-yl)-benzyl)azetidin-3-yl)acetic acid] | 150% | 38.4 nM |
| O=C(O)C1CN(Cc2ccc(-c3nc4ccc(C5(c6ccccc6F)CC5)nc4s3)c(F)c2)C1 [Example 38, 1-(3-fluoro-4-(5-(1-(2-fluorophenyl)cyclopropyl)thiazolo[5,4-b]pyridine-2-yl)-benzyl)azetidine-3-carboxylic acid] | 111% | 3.7 nM |

Second part, the compound after the results:

| Emax | EC50 | Structure (SMILES) |
| --- | --- | --- |
| 89% | 11.6 nM | O=C(O)[C@H]1C[C@@H](Nc2ccc(-c3nc4ccc(C5(c6ccccc6)CC5)nc4s3)c(F)c2)C1 [Example 130, cis-3-((3-fluoro-4-(5-(1-phenylcyclopropyl)[1,3]thiazolo[5,4-b]pyridin-2-yl)phenyl)amino)cyclobutanecarboxylic acid] |
| 88% | 1270 nM | O=C(O)COCc1ccc(-c2nc3ccc(C4(c5ccccc5)CC4)nc3s2)c(F)c1 [Example 85, 2-(3-fluoro-4-(5-(1-phenylcyclopropyl)thiazolo[5,4-b]pyridin-2-yl)benzyloxy)acetic acid] |
| 97% | 42 nM | O=C(O)C1CN(Cc2ccc(-c3nc4ccc(C5(c6ccccc6)CC5)cc4s3)c(F)c2)C1 [Example 10, 1-((3-fluoro-4-(6-(1-phenylcyclopropyl)benzo[d]thiazol-2-yl)phenyl)-methyl)azetidine-3-carboxylic acid hydrochloride] |
| 81% | 5880 nM | O=C(O)CCc1ccc(-c2nc3ccc(C4(c5ccccc5)CC4)nc3s2)c(F)c1 [Example 27, 3-(3-fluoro-4-(5-(1-phenylcyclopropyl)thiazolo[5,4-b]pyridine-2-yl)-phenyl)propanoic acid] |
| 131% | 946 nM | O=C(O)CCS(=O)(=O)Nc1ccc(-c2nc3ccc(C4(c5ccccc5)CC4)nc3s2)c(F)c1 [Example 124, 3-((3-fluoro-4-(5-(1-phenylcyclopropyl)[1,3]thiazolo[5,4-b]pyridin-2-yl)phenyl)sulfamoyl)propanoic acid] |
| 101% | 191 nM | c1ccc(C2(c3ccc4nc(-c5ccc6[nH]ccc6c5)sc4n3)CC2)cc1 [Example 136, 2-(1H-indol-5-yl)-5-(1-phenylcyclopropyl)thiazolo[5,4-b]pyridine] |
| 41% | 2350 nM | CN(CCO)C(=O)c1ccc(-c2nc3ccc(C4(c5ccccc5)CC4)nc3s2)c(F)c1 [Example 109, 3-fluoro-N-(2-hydroxyethyl)-N-methyl-4-(5-(1-phenylcyclopropyl)-[1,3]thiazolo[5,4-b]pyridin-2-yl)benzamide] |
| 63% | 3330 nM | O=C(c1ccc(-c2nc3ccc(C4(c5ccccc5)CC4)nc3s2)c(F)c1)N1CCC1 [Example 105, 2-(4-(1-azetidinylcarbonyl)-2-fluorophenyl)-5-(1-phenylcyclopropyl)-[1,3]thiazolo[5,4-b]pyridine] |
| 100% | 0.6 nM | N[C@H](CC(=O)O)C(=O)Nc1ccc(-c2nc3ccc(C4(c5ccccc5)CC4)nc3s2)c(F)c1 [Example 126, N-(3-fluoro-4-(5-(1-phenylcyclopropyl)[1,3]thiazolo[5,4-b]pyridin-2-yl)phenyl)-D-alpha-asparagine TFA salt] |
| 101% | 2 nM | O=C(O)CCNCc1ccc(-c2nc3ccc(C4(c5ccccc5)CC4)nc3s2)c(F)c1 [Example 12, 3-((3-fluoro-4-(5-(1-phenylcyclopropyl)thiazolo[5,4-b]pyridine-2-yl)-phenyl)methylamino)propanoic acid hydrochloride] |
| 99% | 4.8 nM | Nc1cc(CN2CC(C(=O)O)C2)ccc1-c1nc2ccc(C3(c4ccccc4)CC3)nc2s1 [Example 46, 1-(3-amino-4-(5-(1-phenylcyclopropyl)thiazolo[5,4-b]pyridin-2-yl)benzyl)azetidine-3-carboxylic acid] |
| 125% | 777 nM | CNc1ccc(-c2nc3ccc(C4(c5ccccc5)CC4)nc3s2)c(F)c1 [Example 121, 3-fluoro-N-methyl-4-(5-(1-phenylcyclopropyl)[1,3]thiazolo[5,4-b]pyridin-2-yl)aniline] |
| 93% | 44.9 nM | O=C(O)c1cnn(Cc2ccc(-c3nc4ccc(C5(c6ccccc6)CC5)nc4s3)c(F)c2)c1 [Example 98, 1-(3-fluoro-4-(5-(1-phenylcyclopropyl)thiazolo[5,4-b]pyridin-2-yl)benzyl)-1H-pyrazole-4-carboxylic acid hydrochloride] |
| 491% | 2490 nM | CS(=O)(=O)NCCc1ccc(-c2nc3ccc(C4(c5ccccc5)CC4)nc3s2)c(F)c1 [Example 61, N-(2-(3-fluoro-4-(5-(1-phenylcyclopropyl)[1,3]thiazolo[5,4-b]pyridin-2-yl)phenyl)ethyl)methanesulfonamide] |

— patent US7842685B2, “S1P1 receptor agonists and use thereof” (Amgen Inc., priority 2008, dated 2010)
